Assay results: patent publication US20190106697A1, “Inhibition Of Lactate Transporters For Use In The Treatment Of Inflammatory Diseases” (Queen Mary University of London, priority 2014, published 2019)

How the values were obtained:
Assay type in all cases: cell-based, mouse
CD8+ cytotoxic T-cells = assay: CTL cytotoxicity assay with allogeneic endothelial cells; settings: 10 mM
Description: CTL differentiation and activity assay: Isolated CD8+ T-cells (balb/c) were incubated with CD3-depleted and mytomycin-C-eradicated allogeneic splenocytes (C57BL/6). […] Dead cells were counted using trypan blue exclusion assay 2, 4, 6 and 18 hours after the start of the assay.

activated CD8+ T-cells [1] = assay: In vitro chemokinesis of activated CD8+ T-cells towards CXCL10 (transwell)
Text: (§1) T-cell isolation, in-vitro activation and subset enrichment: T-cells were isolated from C57BL/6 murine lymph nodes and activated for 3 to 5 days with plate bound anti-CD3 and anti-CD28 antibodies (BioLegend), and IL-2 (PeproTech). CD4+ and CD8+ subsets were enriched with commercially available CD4+ and CD8+ T-cell isolation kits according to the manufacturer's instructions (Easysep, Invitrogen) either prior or post activation according to experimental settings. Chemokinesis assays: Chemokinesis assays were performed in 5 μm transwell inlays. In some experiments, T-cells were pre-treated overnight with a number of drugs purchased from Calbiochem: Rapamycin (200 nM), 2-DG (1 mM), Metformin (2 mM). […] 3×10^6 lymphocytes were seeded in the upper transwell chamber; chemokines were added to the lower chamber: CXCL10 (300 ng/ml), CCL5 (50 ng/ml), CCL19/21 (200 ng/ml of each chemokine). Migrated T-cells were counted with a hemocytometer 2, 4 and 6 hours after seeding and % of migrated cells was calculated.

activated CD4+ T-cells [2] = assay: In vitro chemokinesis of activated CD4+ T-cells towards CXCL10 (transwell); settings: 10 mM lactic acid or sodium lactate, CXCL10 300 ng/ml
Text: as §1

activated CD4+ T-cells [3] = assay: CCL5-induced chemokinesis of activated CD4+ T-cells; settings: 10 mM; CCL5 50 ng/ml
Text: as §1

activated CD8+ T-cells [4] = assay: Glucose uptake and flux with 2-NBDG / 6-NBDG in CD8+ T-cells; settings: 2-NBDG and 6-NBDG probes
Description: Measurement of lactate, glycolysis, glucose uptake/flux and cell death: Lactate concentration was measured in the synovial fluid or peritoneal lavage using the Lactate assay Kit (Biovision), according to the manufacturer's instructions. Glycolytic metabolism was measured with a Seahorse XF24 Extracellular Flux Analyzer. Briefly, T-cells were grown in high glucose RPMI-1640 supplemented with 10% FCS. […] T-cell viability upon lactate or metabolic drug treatment was assessed by trypan blue exclusion assay.

`CC(O)C(=O)O` (stereo not shown) [lactic-acid] was tested, and the “cytolytic activity of CTLs” value (CD8+ cytotoxic T-cells) was “inhibited”, the “CXCL10-induced chemokinesis of activated CD8+ T-cells” value (activated CD8+ T-cells [1]; 10 mM lactic acid or sodium lactate, CXCL10 300 ng/ml) was “inhibited” and the “chemokinesis of CD8+ T-cells, culture media buffered to neutral pH” value (activated CD8+ T-cells [1]; lactic-acid with bicarbonate or HEPES to reach a neutral pH) was “still impaired”. The “CXCL10-induced chemokinesis of activated CD4+ T-cells” value (activated CD4+ T-cells [2]) was “not vice versa”, the “CXCL10-induced chemokinesis of activated CD4+ T-cells” value (activated CD4+ T-cells [2]; listed as lactic acid) was “not affected” and the “CCL5-induced migration of CD4+ T-cells” value (activated CD4+ T-cells [3]) was “not”. The “glucose uptake and flux through glycolysis in CD8+ T-cells” value (activated CD8+ T-cells [4]) was “vice versa”.
